According to patent publication EP1462117A1, “Method for in vivo detection of antipsychotic properties of dopamine D3 receptor ligands” (priority 2003, dated 2004):
“And” between values parts separate entries of the source, which are not always exact repeats. Equal entries are not always repeated.

Experiments:
[1] = Plasma concentrations in mice; format: in vivo; details: after injection at a dose giving selective effects at the D3 receptor; n = 6
MPTP-intoxicated monkeys = assay: Levodopa-induced dyskinesia, PD-like symptoms and locomotor activity in MPTP-intoxicated monkeys
wild-type (D3R^+/+) mice = assay: MK-801-induced locomotor activity in wild-type mice; format: in vivo
Procedure: Male Swiss mice (Iffa Credo, France), weighing 25-30 g, were housed four per cage (25 × 15 × 13 cm), on a 12 hr/12 hr light/dark cycle (lights on at 07:00 a.m.), with food and water ad libitum. […] Experiments with D3R-deficient mice were performed on male homozygous mutant mice and their wild-type littermates. […] Subsequently, these mice were backcrossed up to 8 times with C57BL6 mice. The mice used in the present study were backcrossed 7 to 8 times.
(§1) All experiments were conducted between 2.00 p.m. and 6.00 p.m., and the animals were kept in the test room at least 1 h before recording their activity. […] Counts for forward horizontal activity were incremented each time the animal moved from one-half part of the cage to the other, corresponding to disruption of two crossed parallel beams distant of 14 cm. In time-course studies, counts were summed every 5 min.
(§2) In addition, another experiment was performed with two groups of 8 mice of each genotype, injected with either saline or haloperidol (0.05 mg/kg).
(§3) Between-group differences were analyzed with the Statistica™ software using two-way analysis of variance (ANOVA) and Least Significance Difference (LSD) post-hoc test. The analysis of data obtained with the same animals evaluated on several occasions (time-course experiments), between-within univariate or multivariate ANOVA for repeated measures were used (time being the repeated measure).

[2] = system: D3 receptor-deficient mice (D3R^-/-); assay: MK-801-induced locomotor activity in D3 receptor-deficient mice; format: in vivo; details: compound 1 mg/kg; MK-801 […]; D3R^-/- mice
Procedure: (§4) Male Swiss mice (Iffa Credo, France), weighing 25-30 g, were housed four per cage (25 × 15 × 13 cm), on a 12 hr/12 hr light/dark cycle (lights on at 07:00 a.m.), with food and water ad libitum. […] Experiments with D3R-deficient mice were performed on male homozygous mutant mice and their wild-type littermates. […] The mice used in the present study were backcrossed 7 to 8 times.
as §1, §2, §3

Swiss mice [3] = assay: MK-801 (dizocilpine)-induced and spontaneous locomotor activity, acute treatment, actimeter; format: in vivo; details: for MK-801-induced hyperactivity: post-hoc vs saline
Procedure: as §4
Haloperidol (Janssen Pharmaceuticals, Beerse, Belgium) and clozapine (Novartis, Basel, Switzerland) were dissolved in a few drops of hydrochloric acid and distilled water, and the pH of the solution was adjusted to pH 5 to 6 using NaOH. […] The compounds were injected i.p. in a volume of 5 ml/kg.
as §1, §3
To assess simply the in vivo biological activity of the novel compound at the D3 receptor, the above described test, in which hyperlocomotion induced by low doses of dizocilpine is measured, was used.

Swiss mice [4] = assay: Locomotor hyperactivity induced by continuous infusion of MK-801 (osmotic minipumps); format: in vivo
Procedure: Male Swiss mice (IFFA CREDO, France), weighing 26-28 g, were housed six per cage (25 × 15 ×13 cm), on a 12 h/12 h light/dark cycle (lights on at 07:00 a.m.), with food and water freely available. Room temperature ranged from 20° to 22°C and humidity varied between 55% and 65%.
Dizocilpine, as (+)-MK-801 maleate (Sigma), dissolved in 0.9% NaCl (saline), and its respective vehicle solution, was continuously infused via osmotic minipumps (Model 1007D, Alzet Corp.). Minipumps were filled 6 h prior to implantation and placed in a sterile saline water bath at 37°C. Taking into consideration the average weight of the mice at the time of testing, and the rate of the minipump delivery (specified by the manufacturer), the MK-801 concentration was adjusted to deliver 0.01 or 0.02 mg/kg/hr (0.48 mg/kg/day). Mice were anaesthetized with chloral hydrate (400 mg/kg i.p.), and an area on the back of the mice was shaved and cleaned with 70% ethanol. A small incision was made, a pocket beneath the skin was formed and the minipump was placed inside the pocket in each mouse. The incision was sutured, and cleaned with 70% ethanol. The mice were returned in their home cage and in about 2 h they had recovered and were active.
Once the minipumps implanted (Day 0), the locomotor activity was measured for 1h, at days 2, 4 and 7 in an actimeter (Imetronic, Pessac, France).
as §3, with “measure). Data from the resident-intruder assay were analyzed by analysis of variance (ANOVA), followed by a Tukey-Kramer Multiple Comparison post-hoc test.” for “measure).”

[5] = Plasma concentrations in monkeys (radioreceptor assay); format: in vivo
PD-like rats = assay: Rotations in PD-like rats (6-hydroxydopamine lesion, levodopa-treated); format: in vivo; details: saline 108 ± 7
MK-801-treated mice = assay: Resident-intruder assay in MK-801-treated mice; format: in vivo; details: MK-801 0.02 mg/kg/h for 7 days; compound 1 mg/kg i.p. 30 min prior testing; 5 min
Procedure: Male mice were housed individually or in groups of five for at least 1 week prior to minipump implantation (Day 0), delivering MK-801 (0.02 mg/kg/h) or saline (Sham), and were tested at day 7. As described in Dixon et al. (1994), a group-housed male (intruder) was placed in the home cage of the individually housed male (resident), and their behaviors were video recorded for 5 min. […] The videotaped behaviors of the resident or intruder male were individually scored, by an experimenter unaware of the treatment group, for time spent in social investigation (approaching, sniffing, grooming other mouse, and sexual behavior), and in escape behavior (actively avoiding the unfamiliar congener). The scores for each behavior were subsequently averaged for each group.
as §3, with “measure). Data from the resident-intruder assay were analyzed by analysis of variance (ANOVA), followed by a Tukey-Kramer Multiple Comparison post-hoc test.” for “measure).”

**Q.** Which plasma concentration [1] does the source give for `COc1ccccc1N1CCN(CCCCNC(=O)c2ccc3ccccc3c2)CC1` [BP 897, 1-(4-(2-Naphthoylamino)butyl)-4-(2-methoxyphenyl)-1A-piperazine] here?
**A.** The plasma concentration was 130 ± 14 nM.

**Q.** What about the “attenuation of LID” value (MPTP-intoxicated monkeys; calculated from areas under curve, BP 897 5.0 or 10 mg/kg orally with levodopa) of the same molecule?
**A.** The value was 66%.

**Q.** What about the on-time duration (MPTP-intoxicated monkeys; from activity counts, threshold at 30% of the maximal activity, over 5 hr) of the same molecule?
**A.** Its on-time duration is “no difference with placebo”.

**Q.** What about the “antidyskinetic effect along repeated administrations” value (MPTP-intoxicated monkeys; one monkey, BP 897 12 times) of the same molecule?
**A.** Its value is “did not show any obvious signs of decline”.

**Q.** What about the “dose reaching a maximal effect on LID” value (MPTP-intoxicated monkeys; tailored for each monkey, oral, with a fixed dose of levodopa, 5.0 (n = 1), 10 (n = 4)) of the same molecule?
**A.** Its value is 5.0 mg/kg and 10 mg/kg.

**Q.** And the “locomotor activity (activity counts)” value (MPTP-intoxicated monkeys; with levodopa)?
**A.** The value was “undermine the levodopa-induced activity around the dyskinesia threshold”.

**Q.** And the “antiparkinson activity of the compound alone” value (MPTP-intoxicated monkeys; without levodopa, two dyskinetic monkeys)?
**A.** Its value is “no antiparkinson activity”.

**Q.** What about the “minimal active dose to reduce the hyperactivity induced by 0.3 mg/kg of MK-801” value (wild-type (D3R^+/+) mice; D3R^+/+ and D3R^-/- mice) of the same molecule?
**A.** Its value is 3 mg/kg.

**Q.** What about the MK-801-induced activity (wild-type (D3R^+/+) mice; compound 1 mg/kg, MK-801 […], D3R^+/+ mice) of the same molecule?
**A.** The MK-801-induced activity was “inhibited”.

**Q.** What about the “spontaneous activity during the habituation phase” value (wild-type (D3R^+/+) mice; compound 1 mg/kg, experiment with D3R^+/+ and D3R^-/- mice) of the same molecule?
**A.** The value was “Neither of the drugs affected”.

**Q.** What about the “locomotor response to MK-801” value [2] of the same molecule?
**A.** Its value is “no longer able to inhibit”.

**Q.** What about the “activity with MK-801” value (Swiss mice [3]; MK-801 […], 60 min, compound i.p. 0.1, 0.3, 1 mg/kg (haloperidol 0.03, 0.1, 0.3 mg/kg), overall dose-response) of the same molecule?
**A.** Its value is “dose-dependently reduced”.

**Q.** And the “level to which locomotor activity in MK-801-treated mice was reduced” value (Swiss mice [3]; MK-801 […], level corresponds to saline-treated mice)?
**A.** Its value is 30-40%.

**Q.** And the MK-801-induced hyperactivity (Swiss mice [3]; compound 0.3 mg/kg i.p., MK-801 […])?
**A.** Its MK-801-induced hyperactivity is “significantly reduced”.

**Q.** What about the MK-801-induced hyperactivity (Swiss mice [3]; compound 1 mg/kg i.p., MK-801 […]) of the same molecule?
**A.** The MK-801-induced hyperactivity was “significantly reduced”.

**Q.** And the “decrease of the activity in the presence of MK-801” value (Swiss mice [3]; compound 1 mg/kg, MK-801 0.3 mg/kg, statistically non significant)?
**A.** The value was 10-15%.

**Q.** And the spontaneous activity (Swiss mice [3]; habituation phase, 30 min starting 5 min after injection, all doses tested)?
**A.** Its spontaneous activity is “without any effect”.

**Q.** What about the MK-801-induced hyperactivity (Swiss mice [4]; acute administration on the 10th day after minipump implantation, clozapine 1 mg/kg, haloperidol 0.3 mg/kg, BP 897 1 mg/kg) of the same molecule?
**A.** The MK-801-induced hyperactivity was “effect similar to that produced by clozapine or haloperidol”.

**Q.** And the spontaneous hyperactivity (Swiss mice [4]; subchronic treatment twice a day for 4.5 days from day 6, BP 897 1 mg/kg, haloperidol 0.3 mg/kg, recorded at least 6 hours after last administration)?
**A.** The spontaneous hyperactivity was “reversed”.

**Q.** What about the methamphetamine-induced hyperactivity (Swiss mice [4]; subchronic treatment twice a day for 4.5 days from day 6, methamphetamine 1 mg/kg, recorded at least 6 hours after last administration) of the same molecule?
**A.** Its methamphetamine-induced hyperactivity is “reversed”.

**Q.** What about the maximal plasma concentration ([5]; BP 897 5.0 or 10 mg/kg orally) of the same molecule?
**A.** The maximal plasma concentration was 280 ± 110 nM.

**Q.** What about the “time of maximal plasma concentration” value ([5]; monkey, in vivo) of the same molecule?
**A.** Its value is 60 min.

**Q.** And the half-life ([5]; monkey, plasma)?
**A.** The half-life was about 1 h.

**Q.** And the numbers of rotations (PD-like rats; BP 897 0.1 mg/kg with levodopa 50 mg/kg, n = 8)?
**A.** Its numbers of rotations is 89 ± 10.

**Q.** And the numbers of rotations (PD-like rats; BP 897 0.3 mg/kg with levodopa 50 mg/kg, n = 17)?
**A.** The numbers of rotations was 91 ± 12.

**Q.** And the numbers of rotations (PD-like rats; BP 897 1.0 mg/kg with levodopa 50 mg/kg, n = 13)?
**A.** The numbers of rotations was 68 ± 8.

**Q.** What about the numbers of rotations (PD-like rats; BP 897 3.0 mg/kg with levodopa 50 mg/kg, n = 13) of the same molecule?
**A.** Its numbers of rotations is 66 ± 12.

**Q.** What about the Social investigations (MK-801-treated mice) of the same molecule?
**A.** Its Social investigations is “restored”.

**Q.** What about the escape behavior (MK-801-treated mice) of the same molecule?
**A.** The escape behavior was “completely normalized”.
